Measured values as given in PMC4770715, “LIM kinase inhibitors disrupt mitotic microtubule organization and impair tumor cell proliferation” (Oncotarget, 2015).

Assays:
Experiment in all cases: biochemical
Set-up in all cases: KINOMEscan active-site competition binding, percent of control (100 = no competition)
Conditions in all cases: competition binding, percent control
OSR1 = molecular target: T1, OSR1 (Homo sapiens, UniProt O95747)
T1 construct: gene OXSR1

PKMYT1 = PKMYT1 (Homo sapiens, UniProt Q99640)
[1] = molecular target: EGFR(L747-E749del, A750P) (Homo sapiens, UniProt P00533, A750P/DEL747-749)
Chain of EGFR(L747-E749del, A750P) (P00533 with tags, fused parts or gaps DEL747-749/A750P): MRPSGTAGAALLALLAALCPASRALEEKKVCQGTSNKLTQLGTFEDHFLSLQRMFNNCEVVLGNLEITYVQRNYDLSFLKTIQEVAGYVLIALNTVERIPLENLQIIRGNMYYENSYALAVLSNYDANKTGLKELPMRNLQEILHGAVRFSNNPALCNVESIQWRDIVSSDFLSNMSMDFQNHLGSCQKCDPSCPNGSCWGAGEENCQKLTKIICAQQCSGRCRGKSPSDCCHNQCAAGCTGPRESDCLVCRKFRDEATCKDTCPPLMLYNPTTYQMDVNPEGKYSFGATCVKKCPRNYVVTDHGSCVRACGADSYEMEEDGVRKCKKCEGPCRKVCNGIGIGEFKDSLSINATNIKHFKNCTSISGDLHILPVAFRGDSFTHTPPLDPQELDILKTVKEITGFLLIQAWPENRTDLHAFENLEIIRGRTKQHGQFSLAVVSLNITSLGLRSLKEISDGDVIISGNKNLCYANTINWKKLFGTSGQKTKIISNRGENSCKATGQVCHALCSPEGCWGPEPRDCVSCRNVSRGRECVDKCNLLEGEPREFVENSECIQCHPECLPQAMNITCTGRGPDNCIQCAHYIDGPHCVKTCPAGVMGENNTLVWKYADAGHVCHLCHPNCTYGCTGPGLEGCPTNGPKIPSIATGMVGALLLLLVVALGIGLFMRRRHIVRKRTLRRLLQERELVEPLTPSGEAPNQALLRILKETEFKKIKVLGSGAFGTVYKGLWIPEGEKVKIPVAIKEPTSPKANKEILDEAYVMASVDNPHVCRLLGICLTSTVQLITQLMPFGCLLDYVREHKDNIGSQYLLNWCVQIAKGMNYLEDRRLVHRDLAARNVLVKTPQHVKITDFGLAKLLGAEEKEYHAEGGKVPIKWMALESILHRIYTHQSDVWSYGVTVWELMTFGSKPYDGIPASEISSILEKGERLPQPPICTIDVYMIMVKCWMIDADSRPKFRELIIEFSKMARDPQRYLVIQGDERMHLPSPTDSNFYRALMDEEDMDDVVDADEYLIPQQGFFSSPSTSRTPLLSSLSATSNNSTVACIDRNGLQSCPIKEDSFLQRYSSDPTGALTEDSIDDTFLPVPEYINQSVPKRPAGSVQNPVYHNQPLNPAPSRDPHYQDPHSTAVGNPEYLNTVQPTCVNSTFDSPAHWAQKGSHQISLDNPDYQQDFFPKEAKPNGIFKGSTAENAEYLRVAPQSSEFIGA

PIK3CA(H1047Y) = PIK3CA(H1047Y) (Homo sapiens, UniProt P42336, H1047Y)
Chain of PIK3CA(H1047Y) (P42336 whole entry H1047Y): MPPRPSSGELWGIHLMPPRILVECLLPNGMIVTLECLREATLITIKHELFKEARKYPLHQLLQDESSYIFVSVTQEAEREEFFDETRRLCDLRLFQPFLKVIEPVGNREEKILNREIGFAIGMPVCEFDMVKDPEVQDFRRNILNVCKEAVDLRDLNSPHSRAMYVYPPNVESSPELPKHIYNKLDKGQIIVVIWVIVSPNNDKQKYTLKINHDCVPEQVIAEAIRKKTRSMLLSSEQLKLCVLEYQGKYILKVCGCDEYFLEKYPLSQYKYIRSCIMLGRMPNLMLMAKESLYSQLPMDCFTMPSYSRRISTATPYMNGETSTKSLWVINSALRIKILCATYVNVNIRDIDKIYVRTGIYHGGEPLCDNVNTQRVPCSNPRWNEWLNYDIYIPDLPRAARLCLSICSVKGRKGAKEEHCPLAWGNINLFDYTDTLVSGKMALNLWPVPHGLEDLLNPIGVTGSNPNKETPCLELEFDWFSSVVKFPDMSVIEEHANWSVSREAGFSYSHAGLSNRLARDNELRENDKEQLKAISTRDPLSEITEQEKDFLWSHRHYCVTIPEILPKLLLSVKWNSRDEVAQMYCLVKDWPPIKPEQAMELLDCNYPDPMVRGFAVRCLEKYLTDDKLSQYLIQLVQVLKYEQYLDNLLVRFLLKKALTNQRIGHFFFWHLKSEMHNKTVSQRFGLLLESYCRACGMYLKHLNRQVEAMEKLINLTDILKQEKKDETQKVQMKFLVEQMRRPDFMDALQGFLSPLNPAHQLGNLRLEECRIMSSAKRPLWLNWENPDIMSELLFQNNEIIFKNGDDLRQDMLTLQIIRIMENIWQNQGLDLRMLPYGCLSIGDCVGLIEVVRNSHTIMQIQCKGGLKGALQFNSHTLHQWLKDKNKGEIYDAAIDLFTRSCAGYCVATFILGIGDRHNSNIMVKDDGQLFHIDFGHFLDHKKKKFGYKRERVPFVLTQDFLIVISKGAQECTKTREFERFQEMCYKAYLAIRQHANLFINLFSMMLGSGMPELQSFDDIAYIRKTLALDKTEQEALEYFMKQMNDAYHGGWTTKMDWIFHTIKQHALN

MRCKA = molecular target: T2, MRCKA (Homo sapiens, UniProt Q5VT25)
T2 construct: gene CDC42BPA

EGFR(L858R) = EGFR(L858R) (Homo sapiens, UniProt P00533, L858R)
FRK = FRK (Homo sapiens, UniProt P42685)
ERK5 = molecular target: T3, ERK5 (Homo sapiens, UniProt Q13164)
T3 construct: gene MAPK7
T3 sequence (Q13164 whole entry): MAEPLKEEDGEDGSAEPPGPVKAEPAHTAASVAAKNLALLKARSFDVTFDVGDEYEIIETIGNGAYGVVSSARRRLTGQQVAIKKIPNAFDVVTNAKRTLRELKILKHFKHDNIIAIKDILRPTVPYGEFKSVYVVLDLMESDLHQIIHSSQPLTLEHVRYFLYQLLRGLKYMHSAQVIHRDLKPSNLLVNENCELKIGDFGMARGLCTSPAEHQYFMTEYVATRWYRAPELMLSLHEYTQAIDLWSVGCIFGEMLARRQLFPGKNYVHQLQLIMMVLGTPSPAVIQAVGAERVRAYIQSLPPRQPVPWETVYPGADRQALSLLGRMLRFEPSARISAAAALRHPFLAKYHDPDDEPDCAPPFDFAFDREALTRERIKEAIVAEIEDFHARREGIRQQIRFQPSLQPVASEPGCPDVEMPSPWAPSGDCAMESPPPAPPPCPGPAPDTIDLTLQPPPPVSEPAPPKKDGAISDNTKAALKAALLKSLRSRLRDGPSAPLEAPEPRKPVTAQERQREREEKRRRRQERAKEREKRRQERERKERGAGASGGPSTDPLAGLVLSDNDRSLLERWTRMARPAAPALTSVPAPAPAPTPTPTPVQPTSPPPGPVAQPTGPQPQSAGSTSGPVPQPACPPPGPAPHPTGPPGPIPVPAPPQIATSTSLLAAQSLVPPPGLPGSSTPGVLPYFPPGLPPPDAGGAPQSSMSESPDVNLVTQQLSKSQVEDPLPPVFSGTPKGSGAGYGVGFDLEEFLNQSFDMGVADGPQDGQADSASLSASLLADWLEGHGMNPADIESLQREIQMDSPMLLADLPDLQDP

HIPK3 = HIPK3 (Homo sapiens, UniProt Q9H422)
STK35 = STK35 (Homo sapiens, UniProt Q8TDR2)
CDK4-cyclinD1 = molecular target: T4, CDK4-cyclinD1 (Homo sapiens, UniProt P11802)
T4 construct: cyclinD1
T4 sequence (P11802 whole entry): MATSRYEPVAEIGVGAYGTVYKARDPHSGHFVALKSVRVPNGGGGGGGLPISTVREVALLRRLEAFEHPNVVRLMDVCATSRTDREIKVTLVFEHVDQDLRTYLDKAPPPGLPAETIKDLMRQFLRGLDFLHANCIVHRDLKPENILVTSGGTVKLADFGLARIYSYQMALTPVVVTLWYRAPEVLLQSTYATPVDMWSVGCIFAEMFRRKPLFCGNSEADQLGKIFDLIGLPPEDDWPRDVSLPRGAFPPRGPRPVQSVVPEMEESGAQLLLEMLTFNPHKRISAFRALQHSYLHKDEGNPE
T4 sequence (P24385 whole entry partner): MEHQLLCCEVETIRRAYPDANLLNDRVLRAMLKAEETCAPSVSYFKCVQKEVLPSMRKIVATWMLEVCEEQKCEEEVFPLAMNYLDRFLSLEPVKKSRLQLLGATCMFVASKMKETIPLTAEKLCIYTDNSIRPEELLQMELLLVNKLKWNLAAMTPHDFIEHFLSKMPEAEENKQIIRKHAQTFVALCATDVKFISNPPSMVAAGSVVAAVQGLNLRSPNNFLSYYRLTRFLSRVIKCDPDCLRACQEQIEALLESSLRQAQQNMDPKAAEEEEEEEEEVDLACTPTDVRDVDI

PIK3CA(E545K) = PIK3CA(E545K) (Homo sapiens, UniProt P42336, E545K)
Chain of PIK3CA(E545K) (P42336 whole entry E545K): as the sequence (P42336 whole entry H1047Y) above, with E545K, Y1047H counted along it

TAOK2 = TAOK2 (Homo sapiens, UniProt Q9UL54)
CSNK1A1 = CSNK1A1 (Homo sapiens, UniProt P48729)
Chain of CSNK1A1 (P48729 whole entry): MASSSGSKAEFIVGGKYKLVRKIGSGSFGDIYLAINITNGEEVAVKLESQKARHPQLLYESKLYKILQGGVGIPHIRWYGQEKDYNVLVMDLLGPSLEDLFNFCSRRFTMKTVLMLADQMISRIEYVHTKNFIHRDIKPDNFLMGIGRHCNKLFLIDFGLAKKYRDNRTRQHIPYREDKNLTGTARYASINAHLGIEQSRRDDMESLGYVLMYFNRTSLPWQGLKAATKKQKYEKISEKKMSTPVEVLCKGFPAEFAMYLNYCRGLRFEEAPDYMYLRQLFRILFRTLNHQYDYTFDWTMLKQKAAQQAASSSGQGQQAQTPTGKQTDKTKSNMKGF

PKN2 = PKN2 (Homo sapiens, UniProt Q16513)
FGFR4 = FGFR4 (Homo sapiens, UniProt P22455)
CIT = CIT (Homo sapiens, UniProt O14578)
DDR2 = DDR2 (Homo sapiens, UniProt Q16832)
DMPK2 = molecular target: T5, DMPK2 (Homo sapiens, UniProt Q6DT37)
T5 construct: gene CDC42BPG

MKNK1 = MKNK1 (Homo sapiens, UniProt Q9BUB5)
ERK1 = molecular target: T6, ERK1 (Homo sapiens, UniProt P27361)
T6 construct: gene MAPK3
T6 sequence (P27361 whole entry): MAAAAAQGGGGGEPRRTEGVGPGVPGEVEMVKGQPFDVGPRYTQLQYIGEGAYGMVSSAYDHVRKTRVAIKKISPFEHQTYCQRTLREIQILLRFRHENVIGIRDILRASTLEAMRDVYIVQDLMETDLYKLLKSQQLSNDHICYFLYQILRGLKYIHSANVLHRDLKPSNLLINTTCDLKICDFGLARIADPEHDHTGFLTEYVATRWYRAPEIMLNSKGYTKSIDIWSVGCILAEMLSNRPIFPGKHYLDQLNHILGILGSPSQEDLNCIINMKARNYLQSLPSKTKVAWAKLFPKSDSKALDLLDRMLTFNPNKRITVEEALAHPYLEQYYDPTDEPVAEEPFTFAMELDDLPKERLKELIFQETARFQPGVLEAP

MARK3 = MARK3 (Homo sapiens, UniProt P27448)
DRAK1 = molecular target: T7, DRAK1 (Homo sapiens, UniProt Q9UEE5)
T7 construct: gene STK17A

T1 sequence (O95747 whole entry): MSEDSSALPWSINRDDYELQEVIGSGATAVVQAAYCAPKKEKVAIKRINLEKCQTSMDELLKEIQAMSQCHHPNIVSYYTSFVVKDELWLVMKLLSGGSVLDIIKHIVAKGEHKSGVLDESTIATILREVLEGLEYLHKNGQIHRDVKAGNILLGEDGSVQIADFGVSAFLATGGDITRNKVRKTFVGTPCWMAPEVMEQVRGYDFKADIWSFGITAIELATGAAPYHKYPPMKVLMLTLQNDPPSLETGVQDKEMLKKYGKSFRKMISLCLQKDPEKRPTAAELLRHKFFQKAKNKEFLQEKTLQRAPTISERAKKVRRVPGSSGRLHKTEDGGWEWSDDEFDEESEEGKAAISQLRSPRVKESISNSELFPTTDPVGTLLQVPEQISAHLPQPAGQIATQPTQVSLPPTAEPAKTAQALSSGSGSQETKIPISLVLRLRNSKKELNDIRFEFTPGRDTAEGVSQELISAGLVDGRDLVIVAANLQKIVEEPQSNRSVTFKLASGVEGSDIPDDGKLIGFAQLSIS

## COc1ccc(-c2cnccc2-c2cnc(NC(=O)C(C)C)s2)c(C(F)(F)F)c1 [CRT0105446, N-{5-[3-(4-Methoxy-2-trifluoromethyl-phenyl)-pyridin-4-yl]-hiazol-2-yl}-isobutyramide]
OSR1
  remaining binding at 10 µM: 100%
PKMYT1
  remaining binding at 10 µM: 100%
[1]
  remaining binding at 10 µM: 98%
PIK3CA(H1047Y)
  remaining binding at 10 µM: 94%
MRCKA
  remaining binding at 10 µM: 77%
EGFR(L858R)
  remaining binding at 10 µM: 76%
FRK
  remaining binding at 10 µM: 98%
ERK5
  remaining binding at 10 µM: 86%
HIPK3
  remaining binding at 10 µM: 98%
STK35
  remaining binding at 10 µM: 98%
CDK4-cyclinD1
  remaining binding at 10 µM: 20%
PIK3CA(E545K)
  remaining binding at 10 µM: 97%
TAOK2
  remaining binding at 10 µM: 76%
CSNK1A1
  remaining binding at 10 µM: 100%
PKN2
  remaining binding at 10 µM: 96%
FGFR4
  remaining binding at 10 µM: 90%
CIT
  remaining binding at 10 µM: 37%
DDR2
  remaining binding at 10 µM: 0.4%
DMPK2
  remaining binding at 10 µM: 93%
MKNK1
  remaining binding at 10 µM: 49%
ERK1
  remaining binding at 10 µM: 100%
MARK3
  remaining binding at 10 µM: 78%
DRAK1
  remaining binding at 10 µM: 81%

## Cc1ccc(-c2cnccc2-c2cnc(Nc3ccc(O)cc3)s2)c(Cl)c1 [CRT0105950, 4-{5-[3-(2-Chloro-4-methyl-phenyl)-pyridin-4-yl]-thiazol-2-ylamino}-phenol]
OSR1
  remaining binding at 10 µM: 84%
PKMYT1
  remaining binding at 10 µM: 100%
[1]
  remaining binding at 10 µM: 64%
PIK3CA(H1047Y)
  remaining binding at 10 µM: 93%
MRCKA
  remaining binding at 10 µM: 84%
EGFR(L858R)
  remaining binding at 10 µM: 69%
FRK
  remaining binding at 10 µM: 59%
ERK5
  remaining binding at 10 µM: 93%
HIPK3
  remaining binding at 10 µM: 69%
STK35
  remaining binding at 10 µM: 100%
CDK4-cyclinD1
  remaining binding at 10 µM: 3.7%
PIK3CA(E545K)
  remaining binding at 10 µM: 100%
TAOK2
  remaining binding at 10 µM: 21%
CSNK1A1
  remaining binding at 10 µM: 88%
PKN2
  remaining binding at 10 µM: 26%
FGFR4
  remaining binding at 10 µM: 29%
CIT
  remaining binding at 10 µM: 44%
DDR2
  remaining binding at 10 µM: 12%
DMPK2
  remaining binding at 10 µM: 71%
MKNK1
  remaining binding at 10 µM: 46%
ERK1
  remaining binding at 10 µM: 96%
MARK3
  remaining binding at 10 µM: 51%
DRAK1
  remaining binding at 10 µM: 100%
